Reference: publication PMC8772433 (Nature structural & molecular biology, 2021)

Target: SARS-CoV-2 ORF3a (3a), dimer (Severe acute respiratory syndrome coronavirus 2, UniProt P0DTC3)
Test: patch-clamp current recording, excised inside-out patches of 3a-proteoliposomes
Format: biochemical
Details: symmetric 150 mM KCl, pH 7.2, -80 mV, room temperature; soy PC proteoliposomes; flickery block at negative potentials

Sequence of SARS-CoV-2 ORF3a (3a), dimer (P0DTC3 whole entry): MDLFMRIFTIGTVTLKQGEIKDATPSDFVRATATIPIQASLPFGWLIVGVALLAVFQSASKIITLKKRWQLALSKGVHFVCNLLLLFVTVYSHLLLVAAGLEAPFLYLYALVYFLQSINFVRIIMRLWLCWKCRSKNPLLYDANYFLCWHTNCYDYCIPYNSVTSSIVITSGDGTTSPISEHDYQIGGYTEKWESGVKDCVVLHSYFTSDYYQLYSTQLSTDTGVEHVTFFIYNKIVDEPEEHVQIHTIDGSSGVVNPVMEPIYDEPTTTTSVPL

Substance: Ruthenium Red
- IC50: 90 ± 10 µM
